Source: ChEMBL document CHEMBL1145885, “Synthesis and GABA(A) receptor activity of a 6,19-oxido analogue of pregnanolone” (Bioorg Med Chem Lett, 2003)
Active and inactive are the calls of the source. The calls are words filed in the database; no cut-off is given here.

How the values were obtained:
[1] = molecular target: GABA-A receptor; anion channel (Homo sapiens) (UniProt P14867+P47870+P18507+P28472+P48169+Q99928+Q9UN88+P34903+O00591+O14764+Q8N1C3+P18505+P78334+P47869+P31644+Q16445); experiment: GABA-induced 36Cl- influx in hamster cerebral cortex synaptoneurosomes at 0.1 uM; assay type: functional, tissue-based; conditions: Cricetulus griseus
Cricetinae gen. sp. = experiment: Compound was tested for reduction of 3-mercaptopropionic acid induced seizures in hamsters at 20 mg/kg; Active; assay type: functional, organism-based; design: dose 20 mg/kg; conditions: Cricetulus griseus

In the case of CC(=O)[C@H]1CCC2C3CC4OC[C@@]5(CC[C@@H](O)C=C45)C3CC[C@@]21C (some centres not stated), the Activity [1] is reported as “Active” and the Activity (Cricetinae gen. sp.) is reported as “Active”.
